Here are results for four molecules from patent publication US4736051A, “Process for the preparation of an alkali metal salt of a diester phosphoric acid” (Kao Corporation, priority 1985, dated 1988).

Common to all, as to type: physicochemical
Data set [1] in a line: Lather amount (lather volume) of 5% aqueous solution of surface active agent. To be noted: 100 g, 1000 rpm, 30 seconds agitation, 10 seconds standing, 40° C. The method, then: The lather amount was measured according to the following manner. An aqueous solution containing 5% of surface active agent is prepared and 100 g of the aqueous solution is poured into a measuring cylinder, followed by agitation for 30 seconds by agitator. After agitation, the aqueous solution is placed as it is for 10 seconds, followed by subjecting to measurement of the lather volume. The revolution of the agitator is 1000 rpm and the agitator paddles are reversely rotated every 5 seconds. Temperature was maintained 40° C. during the measurement.

Data set [2] is described as follows: Craft point.
The nature of data set [3]: Hygroscopicity of isolated powder. The following applies: white powder.
Data set [4] can be described thus: Phase diagram in aqueous system (FIG. 1).

With Sodium 2 dodecyl phosphate, the “lather amount (lather Vol. ml)” value in data set [1] is 230 mL. In addition, in data set [2], the “craft point (°C.)” value is 20 °C.

As to `CCCCCCCCCCCCOP(=O)([O-])[O-].[Na+].[Na+]` [Sodium 1 dodecyl phosphate], the “lather amount (lather Vol. ml)” value in data set [1] is 260 mL. Besides, the “craft point (°C.)” value in data set [2] was 32 °C.

As to `CCCCCCCCCCCCOP(=O)([O-])OCC(O)C[N+](C)(C)C` (stereo not drawn) [Example 14], the hygroscopicity result in data set [3] is “very hygroscopic”.

With `C=C(C)C(=O)OCC(O)COP(=O)([O-])OCCCCCCCCCCCC.[Na+]` (stereo not drawn) [Compound (XIV), sodium dodecyl 2-hydroxy-3-methacryloyloxypropyl phosphate], the “phase diagram in aqueous systems” value in data set [4] was “liquid crystals”.
